Values after ≈ are worked out from the molar mass of the structure shown. Where two headings read alike, the source gives them in different places.
Legend:
Format in all cases: cell-based
[1] = tested on: B16 (Lignée de mélanome murin); assay: MTT test, anti-tumour activity on B16 cell line; conditions: for IC50: Mus musculus, B16, light or radiation study
Procedure: (§1) Différents composés de l'invention ont été testés pour leurs activités anti-tumorales sur différentes lignées tumorales murines ou humaines et comparés à des produits anti-tumoraux connus.
(§2) Les lignées cellulaires testées sont la lignée lymphoblastoïde murine P388, la lignée de mélanome murin B16, la lignée de kératinocytes humains HaCaT, la lignée de mélanome humain HBL.
(§3) L'action anti-tumorale des composés de l'invention a été testée sur ces différentes lignées après différentes durées d'incubation (30 minutes, 2 heures, 3 heures, 48 heures ou 72 heures).
(§4) En outre, différents types d'irradiation, différentes durées d'irradiation (30 minutes ou 60 minutes) ainsi que différentes durées d'incubation ont été testés.
(§5) Les différents résultats sont présentés dans le tableau 1 annexé.

[2] = tested on: P388 (Lignée lymphoblastoïde murine); assay: MTT test, anti-tumour activity on P388 cell line; conditions: for IC50: Mus musculus
Procedure: as §1, §2, §3, §4, §5

[3] = tested on: HaCaT (Lignée de kératinocytes humains); assay: MTT test, anti-tumour activity on HaCaT cell line; conditions: Homo sapiens, rest 24 h, incubation 3 h, 4°C, incubation before MTT test 45 h, read-out: Dose efficace DL50
Procedure: as §1, §2, §3, §4, §5

[4] = tested on: HBL (Lignée de mélanome humain); assay: MTT test, anti-tumour activity on HBL cell line; conditions: Homo sapiens, rest 24 h, incubation 3 h, 4°C, incubation before MTT test 45 h, read-out: Dose efficace DL50
Procedure: as §1, §2, §3, §4, §5

[5] = read-out: Dose efficace DL50, B16, rest after culture 24 h, incubation 2 h, no irradiation, incubation before MTT test 72 h
[6] = read-out: Dose efficace DL50, B16, rest after culture 24 h, incubation 72 h, no irradiation, incubation before MTT test 0 h
[7] = P388, light or radiation study, read-out: Dose efficace DL50, P388, rest after culture 24 h, incubation 2 h, no irradiation, incubation before MTT test 48 h
[8] = P388, light or radiation study, read-out: Dose efficace DL50, P388, rest after culture 24 h, incubation 48 h, no irradiation, incubation before MTT test 0 h
[9] = B16, rest after culture 24 h, incubation 2 h, no irradiation, incubation before MTT test 72 h, read-out: Dose efficace DL50
[10] = B16, rest after culture 24 h, incubation 72 h, no irradiation, incubation before MTT test 0 h, read-out: Dose efficace DL50
[11] = light or radiation study, UVA Cléo + filtre UVB + polyéthylène, irradiation 60 min
[12] = light or radiation study, P388, rest after culture 24 h, incubation 2 h, no irradiation, incubation before MTT test 48 h, read-out: Dose efficace DL50
[13] = P388, rest after culture 24 h, incubation 48 h, no irradiation, incubation before MTT test 0 h
[14] = B16, rest after culture 24 h, incubation 2 h, no irradiation, incubation before MTT test 72 h
[15] = B16, rest after culture 24 h, incubation 72 h, no irradiation, incubation before MTT test 0 h
[16] = P388, rest after culture 24 h, incubation 2 h, no irradiation, incubation before MTT test 48 h

`CNC1=Nc2ccc(Cl)cc2C2(c3ccccc3)ON2C1` (centres unmarked) [oxaziridine du chlordiazépoxide, oxaziridine de chlorodiazépoxide] gave an IC50 [1, 5] of 32 µg/mL (≈ 107 µM), an IC50 [1, 6] of 15 µg/mL (≈ 50 µM) and an IC50 [2, 7] of 41 µg/mL (≈ 137 µM). It also gave an IC50 [2, 8] of 34 µg/mL (≈ 113 µM).
Work on `O=C1CN2OC2(c2ccccc2)c2cc(Cl)ccc2N1` (centres unmarked) [oxaziridine du démoxépan, oxaziridine de demoxepan] yielded an IC50 [1, 5] of 22 µg/mL (≈ 76.7 µM), an IC50 [1, 6] of 11 µg/mL (≈ 38.4 µM) and an IC50 [2, 7] of 62 µg/mL (≈ 216 µM). It also gave an IC50 [2, 8] of 22 µg/mL (≈ 76.7 µM).
`CNC1=Nc2ccc(Cl)cc2C(c2ccccc2)=[N+]([O-])C1` [chlordiazépoxide, chlorodiazépoxide, reference compound] was tested, and the IC50 ([1]; B16, rest 24 h, incubation 30 min, lampe de Wood, RT, irradiation 30 min, no time before washing (---), incubation before MTT test 72 h, read-out: Dose efficace DL50) was 7 µg/mL (≈ 23.4 µM), the IC50 ([1]; B16, rest 24 h, incubation 30 min, lampe de Wood, RT, irradiation 30 min, time before washing 1 h, incubation before MTT test 72 h, read-out: Dose efficace DL50) was 9 µg/mL (≈ 30 µM) and the IC50 [1, 9] was greater than 100 µg/mL. For the same compound, the IC50 [1, 10] was greater than 100 µg/mL, the IC50 ([3]; light or radiation study, UVA Cléo + filtre UVB + polyéthylène, irradiation 30 min) was 36 µg/mL and the IC50 [3, 11] was 24 µg/mL. For the same compound, the IC50 ([3]; no light source (---), 30 min) was greater than 100 µg/mL, the IC50 [2, 12] was greater than 100 µg/mL and the “Dose efficace DL50” value [2, 13] was greater than 100 µg/mL. The IC50 [4, 11] was 12 µg/mL and the IC50 ([4]; no light source (---), 30 min) was greater than 100 µg/mL.
With `CNC1=Nc2ccccc2C(c2ccccc2)=[N+]([O-])C1` [deschlordiazépoxide, deschlorodiazépoxide] the “Dose efficace DL50” value [1, 14] was greater than 100 µg/mL, the “Dose efficace DL50” value [1, 15] was greater than 100 µg/mL and the “Dose efficace DL50” value [2, 16] was greater than 100 µg/mL. For the same compound, the “Dose efficace DL50” value [2, 13] was greater than 100 µg/mL.
“oxaziridine de deschlorodiazépoxide [oxaziridine du deschlordiazépoxide]” was tested, and the “Dose efficace DL50” value [1, 14] was 14 µg/ml μg/ml, the “Dose efficace DL50” value [1, 15] was 8 µg/ml μg/ml and the “Dose efficace DL50” value [2, 16] was 22 µg/mL. The “Dose efficace DL50” value [2, 13] was 12 µg/mL.
`N[C@@H](Cc1ccc(N(CCCl)CCCl)cc1)C(=O)O` [Melphalan, reference compound] was tested, and the “Dose efficace DL50” value [1] was 10 µg/mL, the IC50 ([1]; read-out: Dose efficace DL50) was 12 µg/mL (≈ 39.3 µM) and the “Dose efficace DL50” value [2] was 7 µg/mL. For the same compound, the IC50 ([2]; P388, light or radiation study, read-out: Dose efficace DL50) was 9 µg/mL (≈ 29.5 µM).
In the case of `O=C1C[N+]([O-])=C(c2ccccc2)c2cc(Cl)ccc2N1` [démoxépan, demoxepan], the IC50 [1, 9] is reported as greater than 100 µg/mL, the IC50 [1, 10] is reported as greater than 100 µg/mL and the IC50 [2, 12] is reported as greater than 100 µg/mL. The “Dose efficace DL50” value [2, 13] was greater than 100 µg/mL.
